The structures appear in SMILES notation. pEC50: −log10 of the molar value.

For series [1], the target named is T1, human nicotinic acetylcholine receptor subtype α4β2 (Homo sapiens, UniProt P17787+P43681).
T1 construct: expressed in transfected cells; host or cells: human HEK cells
The series is described as follows: Characterization of hα4β2 positive allosteric modulators using FLIPR. The class given is cell-based. As for the experimental part:
The ability is determined relative to a maximal nicotine response (normally 100 μM). The activity is determined as a standard assay using a fluorometric method in a Fluorescent Image Plate Reader (FLIPR) as described below in more detail.
Full concentration/response curves are generated and EC50 values are calculated based on peak values. EC50 values (Effective Concentration) represent the concentration of the test substance, at which the nicotine-induced EC20-30 response is positively modulated such that the size of the response equals 50% of a maximal nicotine control response. The maximal positively modulated response is determined relative to the reference (nicotine) response.

T1 sequence (P43681 29-627 limits assumed): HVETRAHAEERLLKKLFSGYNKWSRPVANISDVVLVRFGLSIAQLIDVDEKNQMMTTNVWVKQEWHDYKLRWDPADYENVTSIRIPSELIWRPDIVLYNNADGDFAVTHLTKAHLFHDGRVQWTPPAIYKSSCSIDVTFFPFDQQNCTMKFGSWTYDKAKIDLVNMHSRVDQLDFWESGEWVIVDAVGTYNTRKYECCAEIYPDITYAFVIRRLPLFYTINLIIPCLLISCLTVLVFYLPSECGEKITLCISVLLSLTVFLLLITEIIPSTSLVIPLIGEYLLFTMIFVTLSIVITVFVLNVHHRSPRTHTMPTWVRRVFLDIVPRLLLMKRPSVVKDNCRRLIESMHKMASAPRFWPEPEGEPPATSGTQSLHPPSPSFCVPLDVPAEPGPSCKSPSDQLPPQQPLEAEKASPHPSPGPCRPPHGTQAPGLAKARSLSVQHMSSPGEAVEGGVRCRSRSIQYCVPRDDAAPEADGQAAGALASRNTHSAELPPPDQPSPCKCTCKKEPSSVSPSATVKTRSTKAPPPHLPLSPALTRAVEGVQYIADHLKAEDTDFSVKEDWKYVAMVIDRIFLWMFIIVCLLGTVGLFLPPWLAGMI
T1 sequence (P17787 26-502): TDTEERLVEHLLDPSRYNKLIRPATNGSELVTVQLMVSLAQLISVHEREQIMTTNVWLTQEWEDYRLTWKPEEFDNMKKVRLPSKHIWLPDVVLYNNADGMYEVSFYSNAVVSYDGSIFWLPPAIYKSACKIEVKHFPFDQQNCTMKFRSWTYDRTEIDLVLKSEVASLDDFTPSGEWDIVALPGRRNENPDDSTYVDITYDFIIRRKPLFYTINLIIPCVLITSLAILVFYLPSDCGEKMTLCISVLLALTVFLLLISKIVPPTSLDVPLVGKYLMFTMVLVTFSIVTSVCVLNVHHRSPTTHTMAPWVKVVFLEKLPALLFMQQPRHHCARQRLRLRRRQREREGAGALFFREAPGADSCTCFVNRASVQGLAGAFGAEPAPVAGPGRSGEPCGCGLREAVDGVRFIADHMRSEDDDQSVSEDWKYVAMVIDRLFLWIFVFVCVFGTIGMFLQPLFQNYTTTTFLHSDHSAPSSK

Consider `O=[N+]([O-])c1ccc(-c2nc(-c3cccnc3)no2)o1` [Compound 1, 3-(5-(5-Nitro-furan-2-yl)-[1,2,4]oxadiazol-3-yl)-pyridine], for which the “Max. Response rel. to Nicotine” value in series [1] (maximal positively modulated response relative to maximal nicotine response (normally 100 μM), HEK cells expressing hα4β2) is reported as 97%. In series [1] (positive modulation of sub-maximal nicotine (EC20-30) response, human HEK cells expressing hα4β2, peak values), the pEC50 was 5.17.

As for `N#Cc1ccc(-c2nc(-c3cccnc3)no2)o1` [Compound 6.2, 5-(3-Pyridin-3-yl-[1,2,4]oxadiazol-5-yl)-furan-2-carbonitrile], the melting point was in the range of 141 to 144 °C.

In general, pEC50 refers to the EC50 on a negative log10 scale, so that one unit is a factor of ten. The low end stands for a large EC50, the high end for a small EC50. In general, melting point refers to the temperature, or range, at which the solid turns liquid.
